Laboratory results reported in EP1171440B1, “SUBSTITUTED-3-CYANO-[1.7],[1.5], AND [1.8]-NAPHTHYRIDINE INHIBITORS OF TYROSINE KINASES” (Wyeth Holdings Corporation, priority 1999, dated 2000).
Values after ≈ are worked out from the molar mass of the structure shown.

Assays:
[1] = tested on: MCF7; test: Inhibition of Cancer Cell Growth as Measured by Cell Number (Sulforhodamine B); assay type: cell-based; settings: Homo sapiens, 48 hours exposure
Method: (§1) Human tumor cell lines were plated in 96-well plates (250 µl/well, 1-6 x 10^4 cells/ml) in RPMI 1640 medium, containing 5% FBS (Fetal Bovine Serum). […] After 48 hours exposure to test compounds, cells were fixed with trichloroacetic acid, and stained with Sulforhodamine B. After washing with trichloroacetic acid, bound dye was solubilized in 10 mM Tris base and optical density was determined using a plate reader. Under conditions of the assay the optical density is proportional to the number of cells in the well. IC50s (concentrations causing 50% inhibition of cell growth) were determined from the growth inhibition plots. The test procedure is described in details by Philip Skehan et. al, J.Natl. Canc. Inst., 82, 1107-1112 (1990). […] Information about some of the cell lines used in these test procedures is available from the American […]: Cell Lines and Hybridomas, 1994 Reference Guide, 8th Edition. The Her2Neu cell line is a 3T3 line that has bbeen transfected with Her2 receptor kinase.

[2] = tested on: A431; test: as above; assay type: cell-based, Human; settings: Homo sapiens, A-431, 48 h, 48 hours exposure, read-out: IC50
Method: (§2) After 48 hours exposure to test compounds, cells were fixed with trichloroacetic acid, and stained with Sulforhodamine B. After washing with trichloroacetic acid, bound dye was solubilized in 10 mM Tris base and optical density was determined using a plate reader. Under conditions of the assay the optical density is proportional to the number of cells in the well. […] The test procedure is described in details by Philip Skehan et. al, J.Natl. Canc. […] The Her2Neu cell line is a 3T3 line that has bbeen transfected with Her2 receptor kinase.

[3] = tested on: SW620; test: as above; assay type: cell-based, Human; settings: Homo sapiens, SW-620, 48 hours exposure, read-out: IC50
Method: as §2

[4] = tested on: SKBR3; test: as above; assay type: cell-based, Human; settings: Homo sapiens, SK-BR-3, 48 hours exposure, read-out: IC50
Method: as §2

[5] = tested on: LOX; test: as above; assay type: cell-based, Human; settings: Homo sapiens, 48 hours exposure, read-out: IC50
Method: as §2

[6] = tested on: A2780S; test: as above; assay type: cell-based, Human; settings: Homo sapiens, 48 h, 48 hours exposure, read-out: IC50
Method: as §2

[7] = tested on: A2780DDP; test: as above; assay type: cell-based, Human; settings: Homo sapiens, 48 h, 48 hours exposure, read-out: IC50
Method: as §2

[8] = tested on: MDA435; test: as above; assay type: cell-based, Human; settings: Homo sapiens, MDA435, 48 h, 48 hours exposure, read-out: IC50
Method: as §2

[9] = molecular target: T1, EGF-R Kinase (recombinant enzyme) (Homo sapiens, UniProt P00533); test: Inhibition of Epidermal Growth Factor Receptor Kinase (EGF-R) using recombinant enzyme, RR-SRC peptide phosphorylation with 33P-ATP; assay type: biochemical; settings: for IC50: recombinant His-tagged cytoplasmic domain of EGFR, RR-SRC peptide, 90 min at room temperature, read-out: IC50
T1 construct: containing the EGFR cDNA encoding amino acids 645 - 1186 preceded by Met-Ala-(His)6; made in house; host or cells: Sf9 insect cells infected with recombinant baculovirus vHcEGFR52
Method: Representative test compounds were evaluated for their ability to inhibit the phosphorylation of the tyrosine residue of a peptide substrate catalyzed by the enzyme epidermal growth factor receptor kinase. […] The enzyme used in this assay is the His-tagged cytoplasmic domain of EGFR. A recombinant baculovirus (vHcEGFR52) was constructed containing the EGFR cDNA encoding amino acids 645 - 1186 preceded by Met-Ala-(His)6 . Sf9 cells in 100 mm plates were infected at an moi of 10 pfu/cell and cells were harvested 48 h post infection. A cytoplasmic extract was prepared using 1% Triton X-100 and applied to Ni-NTA column. After washing the column with 20 mM imidazole, HcEGFR was eluted with 250 mM imidazole (in 50 mM Na2HPO4, pH 8.0, 300 mM NaCl). Fractions collected were dialyzed against 10 mM HEPES, pH 7.0, 50 mM NaCl, 10% glycerol, 1ug/mL antipain and leupeptin and 0.1 mM Pefabloc SC. The protein was frozen in dry ice/methanol and stored -70° C.
Test compounds were made into 10 mg/mL stock solutions in 100% dimethylsulfoxide (DMSO). Prior to experiment, stock solutions were diluted to 500 uM with 100% DMSO and then serially diluted to the desired concentration with HEPES buffer (30 mM HEPES pH 7.4).
For the enzyme reaction, 10 uL of each inhibitor (at various concentrations) were added to each well of a 96-well plate. To this was added 3 uL of enzyme (1:10 dilution in 10mM HEPES, pH 7.4 for final conc. of 1:120). This was allowed to sit for 10 min on ice and was followed by the addition of 5 ul peptide (80 uM final conc.), 10ul of 4X Buffer (Table A), 0.25 uL ^33P-ATP and 12 uL H2O. The reaction was allowed to run for 90 min at room temperature and was followed by spotting the entire volume on to precut P81 filter papers. The filter discs were washed 2X with 0.5% phosphoric acid and radioactivity was measured using a liquid scintillation counter. Table A
The IC50 is the concentration of test compound needed to reduce the total amount of phosphorylated substrate by 50%. The % inhibition of the test compound was determined for at least three different concentrations and the IC50 value was evaluated from the dose response curve. […] CPM(control) is in units of counts per minute and was a number expressing the amount of radiolabeled ATP (γ-^33P) incorporated into the RR-SRC peptide substrate by the enzyme after 90 minutes at room temperature in the absence of test compound as measured by liquid scintillation counting. The CPM values were corrected for the background counts produced by ATP in the absence of the enzymatic reaction. Where it was possible to determine an IC50 value, this is reported in TABLE 1 otherwise the % inhibition at 0.5 µM concentration of test compound is shown in TABLE 1.

[10] = molecular target: T2, KDR; the catalytic domain of the VEGF receptor (Homo sapiens, UniProt P35968); test: Inhibition of Kinase insert Domain containing Receptor (KDR), radioactive substrate phosphorylation; assay type: biochemical; settings: pH 7.2; substrate copolymer of glutamic acid and tyrosine, E:Y = 4:1
T2 construct: KDR; the catalytic domain of the VEGF receptor
Method: In this standard pharmacological test procedure, KDR protein is mixed, in the presence or absence of an inhibitor compound, with a substrate peptide to be phosphorylated (a copolymer of glutamic acid and tyrosine, E:Y = 4:1) and other cofactors such as Mg^++ and sodium vanadate (a protein tyrosine phosphatase inhibitor) in an appropriate buffer to maintain pH (7.2). ATP and a radioactive tracer (either P^32- or P^33- labeled ATP) is then add to initiate phosphorylation. After incubation, the radioactive phosphate associated with the acid-insoluble fraction of the assay mixture is then quantified as reflection of substrate phosphorylation. This radioactive format was used to identify inhibitors of KDR tyrosine kinase activity where the IC50 is the concentration of drug that inhibits substrate phosphorylation by 50%.

[11] = tested on: 3T3; test: Inhibition of Cancer Cell Growth as Measured by Cell Number (Sulforhodamine B); assay type: cell-based; settings: Mus musculus, NIH3T3, 48 hours exposure, read-out: IC50
Method: as §1

[12] = tested on: Her2Neu; test: as above; assay type: cell-based; settings: Her2Neu (3T3 line transfected with Her2 receptor kinase); 48 hours exposure
Method: as §1

T1 sequence (P00533 669-1210): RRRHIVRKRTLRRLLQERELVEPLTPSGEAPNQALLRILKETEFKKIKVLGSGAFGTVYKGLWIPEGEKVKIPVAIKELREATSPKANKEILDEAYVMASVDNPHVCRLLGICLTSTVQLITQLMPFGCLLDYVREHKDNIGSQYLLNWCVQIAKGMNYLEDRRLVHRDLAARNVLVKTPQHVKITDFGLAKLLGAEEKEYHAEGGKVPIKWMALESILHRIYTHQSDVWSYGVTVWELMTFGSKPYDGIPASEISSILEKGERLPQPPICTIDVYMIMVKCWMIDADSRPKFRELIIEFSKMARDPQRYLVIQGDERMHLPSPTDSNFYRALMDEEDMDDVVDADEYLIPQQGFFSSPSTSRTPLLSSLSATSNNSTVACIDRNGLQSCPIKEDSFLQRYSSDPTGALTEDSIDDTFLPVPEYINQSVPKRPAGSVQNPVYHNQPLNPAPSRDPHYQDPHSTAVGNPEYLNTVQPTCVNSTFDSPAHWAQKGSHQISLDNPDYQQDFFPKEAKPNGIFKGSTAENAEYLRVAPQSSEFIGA
T2 sequence (P35968 834-1162 limits assumed): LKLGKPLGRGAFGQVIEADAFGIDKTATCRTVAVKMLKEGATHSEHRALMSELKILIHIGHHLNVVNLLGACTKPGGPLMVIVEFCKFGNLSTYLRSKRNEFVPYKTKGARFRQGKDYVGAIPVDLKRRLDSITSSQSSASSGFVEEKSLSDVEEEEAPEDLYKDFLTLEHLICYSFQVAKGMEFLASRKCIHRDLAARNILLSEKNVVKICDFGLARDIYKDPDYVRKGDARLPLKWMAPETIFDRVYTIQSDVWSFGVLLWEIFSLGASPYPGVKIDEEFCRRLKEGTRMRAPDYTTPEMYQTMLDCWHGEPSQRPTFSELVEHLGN

| IC50 [1] [µg/mL] | IC50 [2] [µg/mL] | IC50 [3] [µg/mL] | IC50 [4] [µg/mL] | IC50 [5] [µg/mL] | IC50 [6] [µg/mL] | IC50 [7] [µg/mL] | IC50 [8] [µg/mL] | IC50 [9] [nM] | IC50 [10] [µg/mL] | IC50 [12] [µg/mL] | inhibition at 0.5 µM ([9]; 0.5 µM concentration of test compound, read-out: % Inhibition @ 0.5) [%] | Compound | IC50 [11] [µg/mL] |
| --- | --- | --- | --- | --- | --- | --- | --- | --- | --- | --- | --- | --- | --- |
| 0.4 (≈ 0.985 µM) | 0.23 (≈ 0.566 µM) | 0.17 (≈ 0.418 µM) | 0.12 (≈ 0.295 µM) | 0.07 (≈ 0.172 µM) | 0.06 (≈ 0.148 µM) | 0.13 (≈ 0.32 µM) | 0.88 (≈ 2.17 µM) | 20 |  |  |  | CC#CC(=O)Nc1cc2c(Nc3cccc(Br)c3)c(C#N)cnc2cn1 [Example 61, But-2-ynoic acid, [4-(3-bromo-phenylamino)-3-cyano-[1.7]-naphthyridin-6-yl]-amide] |  |
|  |  |  |  |  |  |  |  |  | 33.9 (≈ 115 µM) |  |  | Cc1ccc(Nc2c(C#N)cnc3cnc(F)cc23)cc1O [Example 66, 6-Fluoro-4-(3-hydroxy-4-methyl-phenylamino)-[1.7]naphthyridine-3-carbonitrile] |  |
|  | 2.23 (≈ 5.77 µM) | > 5 | 4.63 (≈ 12 µM) |  |  |  | > 5 | 1000 |  | > 5 | 31.3 | CN(C)CCOc1cc2c(Nc3ccc(F)c(Cl)c3)c(C#N)cnc2cn1 [Example 74, 4-(3-Chloro-4-fluoro-phenylamino)-6-(2-dimethylamino-ethoxy)-[1.7]naphthyridine-3-carbonitrile] | 4.48 (≈ 11.6 µM) |
